One series has as its system K562 cells. Kind of series: Cell growth/proliferation of K562 cells. It counts as cell-based, human. To be noted: over the concentration range tested.
For a further series, the system named is Class I HDAC (HDAC 1-3). Description: In vitro HDAC inhibition assay. It counts as biochemical.
For series [1], the system named is HbF in SCD erythroid progenitors. Description: Flow cytometry for F-cells and HbF MFI in sickle erythroid progenitors. It counts as cell-based, human. To be noted: for mean F-cells: vehicle 5.8%.
For series [2], the system named is γ-globin and β-globin mRNA in SCD erythroid progenitors. Description: Globin mRNA in sickle erythroid progenitors. It counts as cell-based, human. To be noted: for increase in γ-globin mRNA: day 7 to day 12, n = 6 SCD subjects, vs vehicle.
Series [3] deals with γ-globin mRNA in K562 cells. Description: γ-globin mRNA induction in K562 cells. Format: cell-based, human. To be noted: 48 h, CT108 3 μM, CT-101 5 μM, ST-20 20 μM, valproic acid 1 mM and 2 mM, vs control.
Series [4] deals with acetylated histone H3 (acH3). Kind of series: Western blot for nuclear acetylated histone H3 in sickle erythroid progenitors. Format: cell-based, human.
Series [5] deals with SCD erythroid progenitors. Description: Erythroid maturation and growth of sickle erythroid progenitors. To be noted: 5 days of treatment (day 12). It counts as cell-based, human.
Series [6] relates to acH3 and RNA PolII at γ-globin promoter, β-globin promoter, LCR-HS2. Format: cell-based, human. To be noted: for RNA PolII and acH3 chromatin enrichment in the LCR-HS2: Fig. 5E.
The target of another series is T1, HDAC6 (Homo sapiens, UniProt Q9UBN7).
T1 sequence (Q9UBN7 1-1215): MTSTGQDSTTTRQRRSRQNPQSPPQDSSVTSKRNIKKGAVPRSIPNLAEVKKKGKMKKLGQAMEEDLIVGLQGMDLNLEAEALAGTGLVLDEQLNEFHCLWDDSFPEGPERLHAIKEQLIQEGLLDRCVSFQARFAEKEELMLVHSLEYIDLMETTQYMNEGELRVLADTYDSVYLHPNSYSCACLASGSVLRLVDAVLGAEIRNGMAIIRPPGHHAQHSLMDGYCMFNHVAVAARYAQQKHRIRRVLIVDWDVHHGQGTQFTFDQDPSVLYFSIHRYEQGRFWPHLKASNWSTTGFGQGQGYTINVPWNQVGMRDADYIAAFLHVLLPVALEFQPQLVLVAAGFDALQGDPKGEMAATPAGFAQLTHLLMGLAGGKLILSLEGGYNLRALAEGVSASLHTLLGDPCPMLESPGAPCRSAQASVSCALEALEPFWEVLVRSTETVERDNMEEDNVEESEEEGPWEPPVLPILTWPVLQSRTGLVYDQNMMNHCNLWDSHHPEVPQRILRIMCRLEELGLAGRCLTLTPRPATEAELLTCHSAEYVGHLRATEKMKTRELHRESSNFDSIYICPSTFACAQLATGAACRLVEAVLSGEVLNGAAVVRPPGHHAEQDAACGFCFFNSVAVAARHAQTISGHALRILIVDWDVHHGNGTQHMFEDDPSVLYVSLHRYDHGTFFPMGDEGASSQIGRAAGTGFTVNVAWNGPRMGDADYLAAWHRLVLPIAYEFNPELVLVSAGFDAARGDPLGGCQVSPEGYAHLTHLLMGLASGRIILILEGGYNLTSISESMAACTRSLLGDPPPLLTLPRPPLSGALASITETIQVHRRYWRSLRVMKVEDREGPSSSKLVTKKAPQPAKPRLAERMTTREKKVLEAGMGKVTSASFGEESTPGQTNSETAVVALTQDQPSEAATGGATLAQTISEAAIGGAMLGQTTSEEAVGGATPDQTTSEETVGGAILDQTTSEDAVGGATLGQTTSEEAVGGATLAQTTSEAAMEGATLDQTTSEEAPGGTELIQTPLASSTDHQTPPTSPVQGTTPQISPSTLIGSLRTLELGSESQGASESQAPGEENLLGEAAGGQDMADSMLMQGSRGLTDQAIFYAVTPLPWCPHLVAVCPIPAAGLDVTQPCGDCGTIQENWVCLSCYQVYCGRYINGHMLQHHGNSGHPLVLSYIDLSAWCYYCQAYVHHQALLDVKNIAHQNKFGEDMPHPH
Kind of series: In vitro HDAC inhibition assay. It counts as biochemical. To be noted: 10-dose IC50 mode.

In series [7] the test system is Class IIa and Class IV HDAC isoforms. Description: In vitro HDAC inhibition assay. It counts as biochemical. To be noted: 10-dose IC50 mode.
Series [8] has as its system HbF and HbS protein in SCD erythroid progenitors. Description: Western blot for HbF and HbS protein in sickle erythroid progenitors. It counts as cell-based, human.
The test system of series [9] is HbF. To be noted: SCD patients, intravenous; cited from earlier work.
The subject of another series is HDACs 1-9, and 11. Description: In vitro HDAC inhibition assay, profile over all isoforms tested. To be noted: heat map Fig. 1A.
For series [10] the following is noted: nine SCD subjects, 10 mg per day, 3 days per week; ref NCT01245179; cited from earlier work.
Series [11] relates to HbF. To be noted: three patients with Hodgkin's lymphoma, 3 months of therapy; cited from earlier work.

Turning to `CCCCCCCC(=O)SCC/C=C/[C@@H]1CC(=O)NCc2nc(cs2)C2=N[C@@](C)(CS2)C(=O)N[C@@H](C(C)C)C(=O)N1` [CT-101], in the series on K562 cells, the cell proliferation result is “did not inhibit cell proliferation”. In the series on Class I HDAC (HDAC 1-3) (read-out: IC50 as Class I HDACi, lowest level over Class I isoforms), the IC50 is no less than 4 nM. Also, the “IC50 for HDAC 1-3” value in the series with Class I HDAC (HDAC 1-3) (singlet 10-dose IC50 mode, 3-fold serial dilution, active free thiol form tested) is recorded as “nanomolar concentrations”. The “mean F-cells” value amounted to 8.1% in [1] (100 nM, p < 0.01) and 7.4% in series [1] (200 nM, p < 0.001). Also, the “mean increase in the proportion of F-cells” value in series [1] (vs DMSO vehicle controls, same subject) came to 30%. For the same molecule, the “increase in γ-globin mRNA” value in series [2] (100 nM) was found to be 3.9 fold; in series [2] (200 nM) it was 7 fold. Further, in series [2] (sickle erythroid progenitors), the β-globin transcription entry is on record as “did not alter”. Further, in series [3], the “γ-globin mRNA / HbF expression induction” value is 11 fold. For the same molecule, the “increase in acH3 level” value was determined as 1.8 fold in series [4] (100 nM, n = 6) and 2.0 fold in series [4] (200 nM, n = 6). Also, the “decrease in number of orthochromatic erythroid cells” value in [5] (100 nM) worked out at 42%; in [5] (200 nM), 56%. Moreover, the “acH3 chromatin enrichment in the γ-globin promoter” value in [6] (CT-101 100 mM and 200 nM, 48 h) is on record as 3.8 fold. In addition, the “RNA PolII and acH3 chromatin enrichment in the LCR-HS2” value in series [6] was “increased”. The “RNA PolII and acH3 chromatin enrichment in the β^s-globin proximal promoter” value in [6] (vs vehicle treated cells) is listed as “not changed”. For the same molecule, the “inhibition of HDAC6” value against HDAC6 is “Some inhibition”. Moreover, in series [7], the “inhibition of Class IIa and Class IV isoforms” value is on record as “little to no inhibition”. In addition, the “HbF level increase by Western blot” value in series [8] (200 nM, vs untreated control progenitors, p < 0.01) is on record as “up to 1.7 fold”. The HbS protein level entry in [8] (Western blot, Fig. 3C) was “not significantly changed”.
Consider `NC(=O)NO` [HU, hydroxyurea, reference compound], for which the “HbF level increase by Western blot” value in series [8] (HU 75 μM, vs untreated control) worked out at 1.3 fold.
As to `CCCC(=O)O.CCCC(=O)O.CCCC(=O)O.CCCC(=O)O.N=C(N)NCCC[C@H](N)C(=O)O.N=C(N)NCCC[C@H](N)C(=O)O.N=C(N)NCCC[C@H](N)C(=O)O` [arginine butyrate], in the series with HbF [9], the “enhancement of HbF levels” value is 3 fold.
For the molecule `O=C(/C=C/c1cccc(S(=O)(=O)Nc2ccccc2)c1)NO` [belinostat], in the series on HDACs 1-9, and 11, the “HDAC isoform inhibition profile / selectivity” value is given as “inhibited most HDAC isoforms to some degree”.
Regarding `Cc1[nH]c2ccccc2c1CCNCc1ccc(/C=C/C(=O)NO)cc1` [panobinostat], the tolerability entry in [10] is “without dose limiting or serious adverse effects”. In addition, the “HDAC isoform inhibition profile / selectivity” value with HDACs 1-9, and 11 is listed as “inhibited most HDAC isoforms to some degree”. The “increase in HbF” value with HbF [11] was 2 fold.
`CCCC(=O)[O-].[Na+]` [sodium butyrate, reference compound]: the “decrease of β-globin mRNA level” value in [2] (sodium butyrate 0.2 μM, day 7 to day 12) was found to be 80%. Besides, the “increase in acH3 level” value in series [4] (sodium butyrate) was 3 fold. Further, in [6], the “RNA PolII and acH3 chromatin enrichment in the LCR-HS2” value is listed as “increased”. In addition, the “HbF level increase by Western blot” value in series [8] (sodium butyrate 0.2 μM, vs untreated control) is 1.4 fold.

The values above are taken from paper PMC9733664 (Blood cells, molecules & diseases, 2021).
